In article PMC12670405, “Second-Generation AURKA-Targeting PROTACs: Structural Optimization toward in Vivo Degradation in Neuroblastoma” (Journal of Medicinal Chemistry, 2025):
Like-named read-outs stand apart in the source and are kept apart here.

Key:
AURKA [1] = target: T1, AURKA (Homo sapiens, UniProt O14965); assay: AURKA protein levels, Western blot in SH-SY5Y with ABCB1 knockdown; assay type: cell-based; set-up: endogenous in cells; details: 1 μM, 24h
T1 sequence (O14965 1-403): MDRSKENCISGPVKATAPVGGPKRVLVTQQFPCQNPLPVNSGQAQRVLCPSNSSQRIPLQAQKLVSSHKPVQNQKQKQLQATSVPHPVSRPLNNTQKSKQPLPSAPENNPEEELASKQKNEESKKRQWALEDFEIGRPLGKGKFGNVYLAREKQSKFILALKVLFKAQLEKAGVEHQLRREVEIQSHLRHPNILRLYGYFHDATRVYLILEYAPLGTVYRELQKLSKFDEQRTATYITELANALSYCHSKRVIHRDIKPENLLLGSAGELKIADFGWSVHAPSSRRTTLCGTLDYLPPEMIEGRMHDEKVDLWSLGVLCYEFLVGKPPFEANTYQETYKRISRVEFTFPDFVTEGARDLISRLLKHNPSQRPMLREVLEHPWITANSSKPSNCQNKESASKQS

NanoLuc-AURKA = target: T2, NanoLuc-AURKA (Homo sapiens, UniProt O14965); assay: NanoBRET target engagement, permeabilized mode; assay type: binding; details: permeabilized HEK293T; read-out: NanoBRET IC50, tracer displacement from NanoLuc-AURKA
T2 construct: Plasmids encoding full-length wild-type AURKA fused to Nano-Luc; host or cells: HEK293T
T2 sequence (O14965 1-403): T1 sequence (O14965 1-403)
Description: The NanoBRET Target Engagement Assay (Promega) was performed according to the recommended instructions from the manufacturer. Plasmids encoding full-length wild-type AURKA fused to Nano-Luc via AURKA’s C-terminus (Promega, #NV1041) were transfected into HEK293T cells using FuGENE HD (Promega, #E2312). […] The plate was mixed at 900 rpm for 15 s, using an orbital shaker. For the permeabilized-mode, digitonin (Sigma-Aldrich, #D141) was additionally added at a final concentration of 50 μg/mL. Test compounds were subsequently administered in duplicate using the D300e digital dispenser (Tecan), followed by incubation for 2 h (37 °C, 5% CO2). To measure BRET, nanoglo substrate and extracellular nanoluc inhibitor (only in live-mode) (Promega #N2540) were added, and luminescence was measured using the GloMax Discover Microplate Reader (Promega) with a luminescence filter pair of 450 nm (BP filter, donor) and 600 nm (LP filter, acceptor). The NanoBRET ratio was calculated using the following formula: BRET ratio = 1000*[(acceptor signal/donor signal)with tracer – (acceptor signal/donor signal)no tracer]. Relative BRET ratios (%) were generated by normalizing to the negative DMSO control. The experiment was performed once with 2 replicate samples.
All dose–response curves were computed on GraphPad Prism using the Variable Slope (four parameters) equation. Absolute half-maximal degradation (DC50), growth inhibitory (GI50) and enzymatic inhibitory (IC50) concentrations, as well as inhibition constants (Ki) were derived from dose–response curves via interpolation. Statistical tests were performed on GraphPad Prism and detailed in the figure legends. Unless otherwise stated, “n” in the figure legends indicates the number of independent experiments conducted at different times.

MYCN = MYCN protein levels, Simple Western; assay type: cell-based, human; details: for MYCN codepletion: IMR-32, 500 nM, 24h postexposure; for DC50: read-out: MYCN DC50 24h
Description: Cells were seeded in T-25 flasks at different densities ranging from 1 to 2 million cells per flask and allowed to adhere for 1–2 days. In experiments involving compound treatment, this was done by medium replacement containing the compound(s) of interest in their corresponding concentrations. In competition binding experiments, cells were first pretreated with an excess of MK-5108, thalidomide or MG-132 for 1 h by shaking gently at room temperature prior to addition of SK4454 or SK5527. All samples were normalized to contain the same percentage of DMSO as the negative DMSO controls. Cells were harvested on ice at their respective time points by scraping, washed with ice-cold PBS to collect remaining cells, and centrifuged (2500 rpm, 4 °C). A second washing and centrifugation step was performed prior to collection of the final cell pellets which were then snap-frozen in liquid nitrogen and kept frozen at −80 °C until further processing. Lysis of cell pellets occurred in cold RIPA buffer (0.5% w/v Sodium Deoxycholate, 150 mM NaCl, 50 mM TrisHCl pH 7.5, 0.1% w/v SDS, 1% w/v NP-40) supplemented with protease and phosphatase inhibitors (Roche, #11836145001, #04906845001) by rotating gently at 4 °C for 1h, followed by a centrifugation step for 10 min (10,000 rpm, 4 °C). The supernatant was collected and concentrations of the obtained protein lysates were measured using the Pierce BCA Protein Assay Kit (Thermo Fisher Scientific, #23227).
Simple Western analyses were performed with the Wes instrument (Bio-Techne) using the 12–230 kDa Wes Separation module and the EZ standard pack reagent 1 (Biotechne, #SM-W001, #PS-ST01EZ-8) following the manufacturer’s protocol. Protein lysates were loaded at 0.8 μg/μL under denaturing conditions (0.2 μg/μL for MYCN detection). Chemiluminescence peaks were generated by the Compass Software (Bio-Techne) and the area under the peaks calculated using the Gaussian fit method. Per lane, quantified data were always normalized to that of the loading control (Vinculin) prior to calculating fold changes relative to the negative DMSO control. Mean fold changes are calculated from 3 individual experiments. A list of the primary and secondary antibodies used can be found in the Supporting Information (Supplementary Table S7).
Graphs were generated using GraphPad Prism Software (version 10.1.2) or RStudio (R-4.3.2). All dose–response curves were computed on GraphPad Prism using the Variable Slope (four parameters) equation. Absolute half-maximal degradation (DC50), growth inhibitory (GI50) and enzymatic inhibitory (IC50) concentrations, as well as inhibition constants (Ki) were derived from dose–response curves via interpolation. Statistical tests were performed on GraphPad Prism and detailed in the figure legends. Unless otherwise stated, “n” in the figure legends indicates the number of independent experiments conducted at different times.

AURKA [2] = target: T1, AURKA; assay: KINOMEscan scanMAX; assay type: binding; set-up: purchased Eurofins Discovery; details: read-out: Percent Control
Description: The kinome-wide binding assay was performed by Eurofins Discovery using the scanMAX screening platform. More information can be found on the Eurofins Discovery Web site.

| AURKA degradation, ABCB1 knockdown compared to wild-type (in words) (AURKA [1]) | Structure (SMILES) | IC50 (NanoLuc-AURKA) [nM] | MYCN codepletion (MYCN) [%] | DC50 (MYCN; IMR-32) [nM] | DC50 (MYCN; NGP) [nM] | DC50 (MYCN; SJNB-8) [nM] | remaining binding at 0.1 µM (AURKA [2]; 100 nM) [%] | remaining binding at 1 µM (AURKA [2]; 1000 nM) [%] |
| --- | --- | --- | --- | --- | --- | --- | --- | --- |
| stronger AURKA degradation | O=C1CCC(N2C(=O)c3cccc(OCCOCCOCCOCCNC(=O)[C@]4(Cc5cccc(Nc6nccs6)n5)CC[C@@H](Oc5cccc(Cl)c5F)CC4)c3C2=O)C(=O)N1 (stereo partly shown) [SK2188, reference compound] | – | – | – | – | – | – | – |
| – | Cc1cc(Nc2ccc(F)c(CC3(C(=O)N4CCC(CN5CCN(c6ccc(N7CCC(=O)NC7=O)cn6)CC5)CC4)CCN(Cc4cccc(Cl)c4F)CC3)n2)n[nH]1 [SK4454] | ~20 | ~50 | 117 | 1360 | 1390 | – | – |
| – | Cc1cc(Nc2ccc(F)c(CC3(C(=O)N4CCC(F)(CN5CCN(c6ccc(N7CCC(=O)NC7=O)cn6)CC5)CC4)CCN(Cc4cccc(Cl)c4F)CC3)n2)n[nH]1 [SK5527] | ~20 | ~50 | 236 | 89 | 772 | 0.8 | 0 |
